The record followed here is patent US8148365B2 (priority 2006, dated 2012).

Structures are written as SMILES. Where a name gives a salt, the structure may show the parent alone.

In this test the target is α7-subtype of nicotinic receptors (Rattus norvegicus, UniProt Q05941). The test is described as follows: biochemical. Type of test: binding.
α7-subtype of nicotinic receptors, sequence (Q05941 23-502): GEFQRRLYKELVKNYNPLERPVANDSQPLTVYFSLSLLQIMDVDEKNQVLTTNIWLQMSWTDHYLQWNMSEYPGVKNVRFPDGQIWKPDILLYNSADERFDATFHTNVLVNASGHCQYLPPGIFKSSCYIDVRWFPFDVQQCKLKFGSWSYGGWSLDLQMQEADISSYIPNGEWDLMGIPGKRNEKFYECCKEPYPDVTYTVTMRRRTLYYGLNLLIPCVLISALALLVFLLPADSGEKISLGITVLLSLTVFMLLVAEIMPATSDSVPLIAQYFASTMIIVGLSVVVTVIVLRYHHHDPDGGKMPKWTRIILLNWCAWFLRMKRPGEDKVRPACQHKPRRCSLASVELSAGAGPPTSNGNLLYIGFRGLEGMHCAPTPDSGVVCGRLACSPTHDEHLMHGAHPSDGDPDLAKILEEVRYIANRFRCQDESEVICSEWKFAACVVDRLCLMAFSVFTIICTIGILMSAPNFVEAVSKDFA

`O=C(Nc1cnc(N2CCN3CCC2CC3)nc1)c1ccccc1` [Compound 1, N-[2-(1,4-Diaza-bicyclo[3.2.2]non-4-yl)-pyrimidin-5-yl]-benzamide hydrochloric acid salt] came in with an IC50 of less than 100 nM.
